Reference: patent publication EP1202975B1, “SUBSTITUTED POLYCYCLIC ARYL AND HETEROARYL PYRAZINONES USEFUL FOR SELECTIVE INHIBITION OF THE COAGULATION CASCADE” (Pharmacia Corporation, priority 1999, dated 2000)

Experiments:
[1] = target: Human factor Xa (Homo sapiens, UniProt P00742)
[2] = target: T1, TF-VIIa (Homo sapiens, UniProt P08709); experiment: TF-VIIa Assay; format: biochemical
T1 construct: 2nM recombinant human factor VIIa; purchased American Diagnostica, Greenwich CT; host or cells: soluble TF made in house in E. coli
T1 sequence (P08709 213-466 limits assumed): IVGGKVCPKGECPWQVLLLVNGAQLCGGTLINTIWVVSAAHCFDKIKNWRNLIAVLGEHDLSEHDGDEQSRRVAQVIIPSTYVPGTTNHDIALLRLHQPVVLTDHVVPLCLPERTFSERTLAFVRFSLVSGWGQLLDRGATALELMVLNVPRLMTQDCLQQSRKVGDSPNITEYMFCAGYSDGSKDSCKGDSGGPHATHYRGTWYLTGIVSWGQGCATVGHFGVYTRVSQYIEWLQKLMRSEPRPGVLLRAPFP
T1 sequence (P08709 61-212 limits assumed): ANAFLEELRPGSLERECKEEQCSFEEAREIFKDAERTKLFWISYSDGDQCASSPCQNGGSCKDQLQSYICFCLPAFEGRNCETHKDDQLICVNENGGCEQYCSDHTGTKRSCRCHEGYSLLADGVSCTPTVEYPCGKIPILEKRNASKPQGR
T1 sequence (P13726 33-251 partner limits assumed): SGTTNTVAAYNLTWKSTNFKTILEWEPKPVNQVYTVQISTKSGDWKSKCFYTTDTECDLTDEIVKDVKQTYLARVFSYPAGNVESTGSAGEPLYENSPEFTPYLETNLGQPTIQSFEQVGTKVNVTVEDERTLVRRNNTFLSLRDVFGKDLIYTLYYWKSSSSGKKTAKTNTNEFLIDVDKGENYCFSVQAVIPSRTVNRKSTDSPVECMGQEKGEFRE

Human factor Xa, sequence (P00742 235-488 limits assumed): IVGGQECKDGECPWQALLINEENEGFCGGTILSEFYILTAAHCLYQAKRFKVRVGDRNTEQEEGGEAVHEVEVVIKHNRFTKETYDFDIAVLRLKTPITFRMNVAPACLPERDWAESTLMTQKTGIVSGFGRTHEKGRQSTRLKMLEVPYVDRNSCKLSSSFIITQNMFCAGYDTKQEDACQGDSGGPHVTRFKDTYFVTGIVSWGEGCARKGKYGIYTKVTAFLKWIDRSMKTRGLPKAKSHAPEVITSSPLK
Human factor Xa, sequence (P00742 41-179 limits assumed): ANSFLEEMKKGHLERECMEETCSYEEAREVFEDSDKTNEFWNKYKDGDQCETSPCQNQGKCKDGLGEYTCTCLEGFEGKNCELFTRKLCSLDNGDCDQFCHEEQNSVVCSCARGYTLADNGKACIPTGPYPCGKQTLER

SMILES | % Inhibition Factor Xa (100 µM) [1] | % Inhibition TF-VIIa (100 µM) [2]
Cc1c(Cl)nc(NCCc2ccccc2)c(=O)n1CC(=O)NCCc1ccncc1 [Example E-0002] | 0% | 0%
Cc1c(Cl)nc(NCCc2cccc(Cl)c2)c(=O)n1CC(=O)NCCc1ccncc1 [Example E-0003] | 0% | 0%
Cc1c(Cl)nc(NCCc2ccc(Cl)cc2)c(=O)n1CC(=O)NCCc1ccncc1 [Example E-0004] | 0% | 0%
Cc1c(Cl)nc(NCCc2cccnc2)c(=O)n1CC(=O)NCCc1ccncc1 [Example E-0005] | 0% | 0%
Cc1c(Cl)nc(NCCc2ccncc2)c(=O)n1CC(=O)NCCc1ccncc1 [Example E-0006] | 0% | 2%
Cc1c(Cl)nc(NCCN2CCOCC2)c(=O)n1CC(=O)NCCc1ccncc1 [Example E-0007] | 0% | 0%
Cc1c(Cl)nc(NCc2ccncc2)c(=O)n1CC(=O)NCCc1ccncc1 [Example E-0008] | 0% | 0%
O=C(Cn1c(-c2ccccc2)c(Cl)nc(NCc2ccccc2)c1=O)NCCc1ccncc1 [Example E-0009] | 1% | 0%
O=C(Cn1c(-c2ccccc2)c(Cl)nc(NCCc2ccccc2)c1=O)NCCc1ccncc1 [Example E-0010] | 0% | 0%
O=C(Cn1c(-c2ccccc2)c(Cl)nc(NCCc2cccc(Cl)c2)c1=O)NCCc1ccncc1 [Example E-0011] | 0% | 0%
O=C(Cn1c(-c2ccccc2)c(Cl)nc(NCCc2ccc(Cl)cc2)c1=O)NCCc1ccncc1 [Example E-0012] | 0% | 0%
O=C(Cn1c(-c2ccccc2)c(Cl)nc(NCCc2cccnc2)c1=O)NCCc1ccncc1 [Example E-0013] | 0% | 0%
O=C(Cn1c(-c2ccccc2)c(Cl)nc(NCCc2ccncc2)c1=O)NCCc1ccncc1 [Example E-0014] | 0% | 0%
O=C(Cn1c(-c2ccccc2)c(Cl)nc(NCCN2CCOCC2)c1=O)NCCc1ccncc1 [Example E-0015] | 0% | 0%
O=C(Cn1c(-c2ccccc2)c(Cl)nc(NCc2ccncc2)c1=O)NCCc1ccncc1 [Example E-0016] | 0% | 0%
COc1ccc(-c2c(Cl)nc(NCc3ccccc3)c(=O)n2CC(=O)NCCc2ccncc2)cc1 [Example E-0033] | 0% | 0%
COc1ccc(-c2c(Cl)nc(NCCc3cccnc3)c(=O)n2CC(=O)NCCc2ccncc2)cc1 [Example E-0037] | 0% | 0%
COc1ccc(-c2c(Cl)nc(NCCc3ccncc3)c(=O)n2CC(=O)NCCc2ccncc2)cc1 [Example E-0038] | 0% | 0%
COc1ccc(-c2c(Cl)nc(NCCN3CCOCC3)c(=O)n2CC(=O)NCCc2ccncc2)cc1 [Example E-0039] | 1% | 0%
COc1ccc(-c2c(Cl)nc(NCc3ccncc3)c(=O)n2CC(=O)NCCc2ccncc2)cc1 [Example E-0040] | 0% | 0%
O=C(Cn1c(-c2ccc3c(c2)OCO3)c(Cl)nc(NCc2ccccc2)c1=O)NCCc1ccncc1 [Example E-0041] | 0% | 0%
O=C(Cn1c(-c2ccc3c(c2)OCO3)c(Cl)nc(NCCc2ccccc2)c1=O)NCCc1ccncc1 [Example E-0042] | 0% | 0%
O=C(Cn1c(-c2ccc3c(c2)OCO3)c(Cl)nc(NCCc2cccc(Cl)c2)c1=O)NCCc1ccncc1 [Example E-0043] | 0% | 0%
O=C(Cn1c(-c2ccc3c(c2)OCO3)c(Cl)nc(NCCc2ccc(Cl)cc2)c1=O)NCCc1ccncc1 [Example E-0044] | 0% | 0%

SMILES | % Inhibition Factor Xa (100 µM) [1] | % Inhibition TF-VIIa (100 µM) [2]
O=C(Cn1c(-c2ccc3c(c2)OCO3)c(Cl)nc(NCCc2cccnc2)c1=O)NCCc1ccncc1 [Example E-0045] | 0% | 0%
O=C(Cn1c(-c2ccc3c(c2)OCO3)c(Cl)nc(NCCc2ccncc2)c1=O)NCCc1ccncc1 [Example E-0046] | 0% | 0%
O=C(Cn1c(-c2ccc3c(c2)OCO3)c(Cl)nc(NCCN2CCOCC2)c1=O)NCCc1ccncc1 [Example E-0047] | 0% | 0%
O=C(Cn1c(-c2ccc3c(c2)OCO3)c(Cl)nc(NCc2ccncc2)c1=O)NCCc1ccncc1 [Example E-0048] | 0% | 0%
O=C(Cn1c(-c2ccc(-c3ccccc3)cc2)c(Cl)nc(NCCc2cccnc2)c1=O)NCCc1ccncc1 [Example E-0053] | 0% | 0%
O=C(Cn1c(-c2ccc(-c3ccccc3)cc2)c(Cl)nc(NCCN2CCOCC2)c1=O)NCCc1ccncc1 [Example E-0055] | 0% | 0%
O=C(Cn1c(-c2ccc(-c3ccccc3)cc2)c(Cl)nc(NCc2ccncc2)c1=O)NCCc1ccncc1 [Example E-0056] | 0% | 0%
O=C(Cn1c(Cc2ccccc2)c(Cl)nc(NCc2ccccc2)c1=O)NCCc1ccncc1 [Example E-0057] | 6% | 0%
O=C(Cn1c(Cc2ccccc2)c(Cl)nc(NCCc2ccccc2)c1=O)NCCc1ccncc1 [Example E-0058] | 0% | 0%
O=C(Cn1c(Cc2ccccc2)c(Cl)nc(NCCc2cccc(Cl)c2)c1=O)NCCc1ccncc1 [Example E-0059] | 0% | 0%
O=C(Cn1c(Cc2ccccc2)c(Cl)nc(NCCc2ccc(Cl)cc2)c1=O)NCCc1ccncc1 [Example E-0060] | 0% | 0%
O=C(Cn1c(Cc2ccccc2)c(Cl)nc(NCCc2cccnc2)c1=O)NCCc1ccncc1 [Example E-0061] | 0% | 0%
O=C(Cn1c(Cc2ccccc2)c(Cl)nc(NCCc2ccncc2)c1=O)NCCc1ccncc1 [Example E-0062] | 0% | 0%
O=C(Cn1c(Cc2ccccc2)c(Cl)nc(NCCN2CCOCC2)c1=O)NCCc1ccncc1 [Example E-0063] | 0% | 0%
O=C(Cn1c(Cc2ccccc2)c(Cl)nc(NCc2ccncc2)c1=O)NCCc1ccncc1 [Example E-0064] | 0% | 0%
O=C(Cn1c(CCc2ccccc2)c(Cl)nc(NCc2ccccc2)c1=O)NCCc1ccncc1 [Example E-0065] | 0% | 0%
O=C(Cn1c(CCc2ccccc2)c(Cl)nc(NCCc2ccccc2)c1=O)NCCc1ccncc1 [Example E-0066] | 0% | 0%
O=C(Cn1c(CCc2ccccc2)c(Cl)nc(NCCc2cccc(Cl)c2)c1=O)NCCc1ccncc1 [Example E-0067] | 0% | 0%
O=C(Cn1c(CCc2ccccc2)c(Cl)nc(NCCc2ccc(Cl)cc2)c1=O)NCCc1ccncc1 [Example E-0068] | 0% | 0%
O=C(Cn1c(CCc2ccccc2)c(Cl)nc(NCCc2cccnc2)c1=O)NCCc1ccncc1 [Example E-0069] | 0% | 0%
O=C(Cn1c(CCc2ccccc2)c(Cl)nc(NCCc2ccncc2)c1=O)NCCc1ccncc1 [Example E-0070] | 0% | 0%
O=C(Cn1c(CCc2ccccc2)c(Cl)nc(NCCN2CCOCC2)c1=O)NCCc1ccncc1 [Example E-0071] | 0% | 0%
O=C(Cn1c(CCc2ccccc2)c(Cl)nc(NCc2ccncc2)c1=O)NCCc1ccncc1 [Example E-0072] | 0% | 0%
